T1: Signal transducer and activator of transcription 1 (STAT1)
T1 chain: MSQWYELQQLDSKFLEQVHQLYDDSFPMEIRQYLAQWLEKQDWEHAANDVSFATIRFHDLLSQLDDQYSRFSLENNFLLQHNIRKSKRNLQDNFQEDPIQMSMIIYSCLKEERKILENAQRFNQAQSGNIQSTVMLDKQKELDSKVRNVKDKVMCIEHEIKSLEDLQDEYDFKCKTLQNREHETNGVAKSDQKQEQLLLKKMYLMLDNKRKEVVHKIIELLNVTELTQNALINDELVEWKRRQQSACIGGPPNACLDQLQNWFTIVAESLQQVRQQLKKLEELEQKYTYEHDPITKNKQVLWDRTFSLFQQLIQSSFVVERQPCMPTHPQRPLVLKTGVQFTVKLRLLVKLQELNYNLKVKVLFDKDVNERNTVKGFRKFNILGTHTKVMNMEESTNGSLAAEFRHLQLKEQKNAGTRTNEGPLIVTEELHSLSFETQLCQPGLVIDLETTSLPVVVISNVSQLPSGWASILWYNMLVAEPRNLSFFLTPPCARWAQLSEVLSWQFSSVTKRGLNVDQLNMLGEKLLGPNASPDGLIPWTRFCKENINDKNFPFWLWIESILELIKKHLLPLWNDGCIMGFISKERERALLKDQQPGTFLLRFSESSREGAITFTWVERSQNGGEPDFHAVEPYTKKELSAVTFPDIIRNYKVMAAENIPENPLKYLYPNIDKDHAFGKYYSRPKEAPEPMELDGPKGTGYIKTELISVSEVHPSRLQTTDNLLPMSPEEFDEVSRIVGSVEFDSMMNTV


Target: T1, Signal transducer and activator of …
Settings: not given

Molecule	phosphorylation of STAT1 at Ser727 in vitro (kinase reaction, immunoblot)
Ribosomal S6 Kinase-1 (RSK1), recombinant (protein) MEQDPKPPRLRLWALIPWLPRKQRPRISQTSLPVPGPGSGPQRDSDEGVLKEISITHHVKAGSEKADPSHFELLKVLGQGSFGKVFLVRKVTRPDSGHLYAMKVLKKATLKVRDRVRTKMERDILADVNHPFVVKLHYAFQTEGKLYLILDFLRGGDLFTRLSKEVMFTEEDVKFYLAELALGLDHLHSLGIIYRDLKPENILLDEEGHIKLTDFGLSKEAIDHEKKAYSFCGTVEYMAPEVVNRQGHSHSADWWSYGVLMFEMLTGSLPFQGKDRKETMTLILKAKLGMPQFLSTEAQSLLRALFKRNPANRLGSGPDGAEEIKRHVFYSTIDWNKLYRREIKPPFKPAVAQPDDTFYFDTEFTSRTPKDSPGIPPSAGAHQLFRGFSFVATGLMEDDGKPRAPQAPLHSVVQQLHGKNLVFSDGYVVKETIGVGSYSECKRCVHKATNMEYAVKVIDKSKRDPSEEIEILLRYGQHPNIITLKDVYDDGKHVYLVTELMRGGELLDKILRQKFFSEREASFVLHTIGKTVEYLHSQGVVHRDLKPSNILYVDESGNPECLRICDFGFAKQLRAENGLLMTPCYTANFVAPEVLKRQGYDEGCDIWSLGILLYTMLAGYTPFANGPSDTPEEILTRIGSGKFTLSGGNWNTVSETAKDLVSKMLHVDPHQRLTAKQVLQHPWVTQKDKLPQSQLSHQDLQLVKGAMAATYSALNSSKPTPQLKPIESSILAQRRVRKLPSTTL	RSK1 is capable of phosphorylating STAT1 at Ser727 in vitro

System: RSK1 (RPS6KA1) gene expression
Settings: FIG. 20; cited from earlier work

Molecule	RSK1 expression effect under various conditions
C=CCn1c(=O)c2cnc(Nc3ccc(N4CCN(C)CC4)cc3)nc2n1-c1cccc(C(C)(C)O)n1 [MK-1775]	U937-specific effect

Same assay, conditions: Table 1; pert_type trt_cp = small molecule, trt_sh = shRNA; cited from earlier work

Molecule	RSK1 (agents that alter RSK1 expression)
CCNC(=O)c1noc(-c2cc(C(C)C)c(O)cc2O)c1-c1ccc(CN2CCOCC2)cc1 [NVP-AUY922]	−1.23
C[S+]([O-])CCCCN=C=S (stereo not shown) [sulforaphane]	−0.50
CC(C(=O)Nc1cccc(/N=C/c2c(O)ccc3ccccc23)c1)c1ccccc1 (stereo not shown) [salermide]	−0.98
CN(C)C(=O)c1cccc(-c2cccc(-c3nc(C(=O)NC4CCCCC4)cc4c3[C@@H](CCO)N([S@+]([O-])C(C)(C)C)C4)c2)c1 [BRD-K08663380]	−0.65
O=C1[C@H](Cc2ccc(O)cc2)N2C(=O)CCN(C(=O)NCc3ccccc3)[C@H]2CN1Cc1cccc2ccccc12 [BRD-K73261812]	−0.97
c1ccc2c(-c3cnn4cc(-c5ccc(N6CCNCC6)cc5)cnc34)ccnc2c1 [LDN-193189]	−1.38
CCCC[C@@H](C)/C=C(C)/C=C(\C)C(=O)NC1=C[C@@](O)(/C=C/C=C/C=C/C(=O)NC2=C(O)CCC2=O)C2O[C@@H]2C1=O (stereo partly drawn) [manumycin-a, N-[(1S,5S,6R)-5-hydroxy-5-[(1E,3E,5E)-7-[(2-hydroxy-5-oxo-1-cyclopenten-1-yl)amino]-7-oxo-1,3,5-heptatrien-1-yl]-2-oxo-7-oxabicyclo [4.1.0]hept-3-en-3-yl]-2E,4E,6R-trimethyl,2,4-decadienamide]	−1.48
CC1=NN(c2ccc(C(=O)O)cc2)C(=O)/C1=C/c1ccc(-c2cc(C)c(C)cc2[N+](=O)[O-])o1 [BRD-K68548958]	−0.99
FC(F)c1nc2ccccc2n1-c1nc(N2CCOCC2)nc(N2CCOCC2)n1 [ZSTK-474]	−0.73
Oc1cccc(-c2nc(N3CCOCC3)c3oc4ncccc4c3n2)c1 [PI-103]	−0.54
C=C[C@](C)(O)CC/C=C(\C)C(=O)O[C@H]1[C@H](O)[C@@H](O)[C@H](O[C@@](C)(C=C)CC/C=C(\CO)C(=O)O[C@H]2C[C@]3(C(=O)O[C@@H]4O[C@H](CO)[C@@H](O)[C@H](O)[C@H]4O[C@@H]4O[C@@H](C)[C@H](O[C@@H]5O[C@@H](CO)[C@H](O)[C@H]5O)[C@@H](O[C@@H]5O[C@H](CO)[C@@H](O)[C@H](O)[C@H]5O)[C@H]4O)[C@H](O)C[C@]4(C)C(=CC[C@@H]5[C@@]6(C)CC[C@H](O[C@@H]7O[C@H](CO[C@@H]8O[C@H](C)[C@H](O)[C@H](O)[C@H]8O[C@@H]8OC[C@@H](O)[C@H](O)[C@H]8O)[C@@H](O)[C@H](O)[C@H]7NC(C)=O)C(C)(C)[C@@H]6CC[C@]54C)[C@@H]3CC2(C)C)O[C@@H]1C [avicin-g]	−1.17
CC(C)C[C@@H](C(=O)N[C@H](C(=O)OC1CCCC1)c1ccccc1)[C@H](O)C(=O)NO [tosedostat, αS-[[(2R)-2-[(1S)-1-hydroxy-2-(hydroxyamino)-2-oxoethyl]-4-methyl-1-oxopentyl]amino]-benzeneacetic acid, cyclopentyl ester]	−0.96
C/C=C/C/C=C/CCC(=O)[C@H]1O[C@H]1C(N)=O [cerulenin, (2R,3S)-3-[(4E,7E)-1-Oxo-4,7-nonadien-1-yl]-2-oxiranecarboxamide]	−1.40

Same assay, conditions: Table 2; cited from earlier work

Molecule	RPS6KA1 (small molecules that inhibit RSK1 expression)
CC(C(=O)Nc1cccc(/N=C/c2c(O)ccc3ccccc23)c1)c1ccccc1 (stereo not shown) [salermide]	−0.98
C=CCNC1=C2C[C@@H](C)C[C@H](OC)[C@H](O)[C@@H](C)/C=C(\C)[C@H](OC(N)=O)[C@@H](OC)/C=C\C=C(/C)C(=O)NC(=CC1=O)C2=O [tanespimycin, 17-N-allylamino-17-demethoxygeldanamycin]	−1.17
CCCC[C@@H](C)/C=C(C)/C=C(\C)C(=O)NC1=C[C@@](O)(/C=C/C=C/C=C/C(=O)NC2=C(O)CCC2=O)C2O[C@@H]2C1=O (stereo partly drawn) [manumycin-a, N-[(1S,5S,6R)-5-hydroxy-5-[(1E,3E,5E)-7-[(2-hydroxy-5-oxo-1-cyclopenten-1-yl)amino]-7-oxo-1,3,5-heptatrien-1-yl]-2-oxo-7-oxabicyclo [4.1.0]hept-3-en-3-yl]-2E,4E,6R-trimethyl,2,4-decadienamide]	−1.48
CC(C)C[C@@H](C(=O)N[C@H](C(=O)OC1CCCC1)c1ccccc1)[C@H](O)C(=O)NO [tosedostat, αS-[[(2R)-2-[(1S)-1-hydroxy-2-(hydroxyamino)-2-oxoethyl]-4-methyl-1-oxopentyl]amino]-benzeneacetic acid, cyclopentyl ester]	−0.96
C/C=C/C/C=C/CCC(=O)[C@H]1O[C@H]1C(N)=O [cerulenin, (2R,3S)-3-[(4E,7E)-1-Oxo-4,7-nonadien-1-yl]-2-oxiranecarboxamide]	−1.40

System: RSK1 (S230p) phosphorylation site
Settings: MCF7 cell line; P100 dataset; cited from earlier work

Molecule	modulation of RSK1-S230p phosphorylation
CN[C@@H]1C[C@H]2O[C@@](C)([C@@H]1OC)n1c3ccccc3c3c4c(c5c6ccccc6n2c5c31)C(=O)NC4 [Staurosporine]	modulated

Same assay, conditions: PC3 cell line; P100 dataset; cited from earlier work

Molecule	modulation of RSK1-S230p phosphorylation
O=C(c1ccc(C(=O)N2CCC(N3CCCC3)CC2)c(Nc2ccccc2)c1)N1CCC(N2CCCC2)CC1 [UNC-1215]	modulated

Same assay, conditions: YAPC cell line; P100 dataset; cited from earlier work

Molecule	modulation of RSK1-S230p phosphorylation
Cc1c[nH]c(-c2cnc(NCCNc3ccc(C#N)cn3)nc2-c2ccc(Cl)cc2Cl)n1 [CHIR-99021]	modulated
C=C1[C@@H](O)[C@@H]2O[C@]3(CC[C@H](/C=C/[C@@H](C)[C@@H]4CC(C)=C[C@@]5(O[C@H](C[C@@](C)(O)C(=O)O)CC[C@H]5O)O4)O3)CC[C@H]2O[C@@H]1[C@@H](O)C[C@H](C)[C@H]1O[C@@]2(CCCCO2)CC[C@H]1C [okadaic acid]	modulated
O=C(CCCCCCC(=O)Nc1ccccc1)NO [vorinostat]	modulated
